# Data as given in patent US11279714B2, “Anti-infective compounds” (priority 2014, dated 2022).
# What was measured:
# [1] = system: M. tuberculosis H37Rv expressing the green fluorescent protein (H37Rv-GFP); test: microbe, parasite or virus in culture; type: cell-based; details: Mycobacterium tuberculosis, H37RV, 120 h; read-out: QUM (MIC50)
# [2] = system: Raw 264.7 cells infected with H37Rv-GFP; test: microbe, parasite or virus in culture; type: cell-based, M. tuberculosis; details: for MIC50: Mycobacterium tuberculosis, H37RV, 120 h, read-out: QIM (MIC50)
SMILES,MIC50 [1] [µM],MIC50 [2] [µM],"QIM (MIC50, uM) [2]"
CCc1ccc(NC(=O)c2cc3nc(N4CCCCC4)sc3s2)cc1 [Compound 12],> 20,> 20,
COCCN(C)c1nc2sc(C(=O)Nc3ccc(-c4ccc(F)nc4)cc3)cc2s1 [Compound 271],< 1,< 1,
COc1ccc(NC(=O)c2cc3sc(N4CCC(O)CC4)nc3s2)cc1 [Compound 76],< 1,< 1,
O=C(Nc1ccc(F)cc1)c1cc2sc(NC3CCCNC3)nc2s1 (stereo not shown) [Compound 310],> 20,> 20,
O=C(Nc1ccc(F)cn1)c1cc2sc(N3CCNCC3)nc2s1 [Compound 342],1 to 20,< 1,
Cc1nc2cc(NC(=O)c3cc4sc(NC5CCOCC5)nc4s3)ccc2o1 [Compound 299],< 1,< 1,
Cc1nnc(-c2ccc(NC(=O)c3cc4sc(N5CCC(C(=O)N(C)C)CC5)nc4s3)cc2)o1 [Compound 184],> 20,> 20,
O=C(Nc1ccc(F)cc1)c1cc2sc(N3CCN4CCCC4C3)nc2s1 (stereo not shown) [Compound 322],1 to 20,,
CNC(=O)C1CCN(c2nc3sc(C(=O)Nc4ccc5oc(C)nc5c4)cc3s2)CC1 [Compound 212],1 to 20,< 1,
O=C(Nc1ccc(N2CCC(O)(Cc3ccccc3)CC2)cc1)c1cc2sc(NCCN3CCOCC3)nc2s1 [Compound 294],> 20,< 1,
CN(C)C(=O)C1CCN(c2nc3sc(C(=O)Nc4ccc(-c5ccc(F)cc5)cn4)cc3s2)CC1 [Compound 246],1 to 20,< 1,
CN(C)C(=O)C1CCN(c2nc3sc(C(=O)Nc4ccc(-c5ccc(F)cn5)cc4)cc3s2)CC1 [Compound 284],< 1,,
CS(=O)(=O)O.CS(=O)(=O)O.O=C(Nc1ccc(-c2ccc(F)cn2)cc1)c1cc2sc(NCCN3CCOCC3)nc2s1 [Compound 360],< 1,,+++ (+++ indicates <1 uM)
COCCN(C)c1nc2sc(C(=O)Nc3ccc(-c4ccc(F)cc4)cn3)cc2s1 [Compound 273],1 to 20,< 1,
Cc1nc2cc(NC(=O)c3cc4sc(N5CCC(CC(=O)N(C)C)C5)nc4s3)ccc2o1 (stereo not shown) [Compound 308],< 1,< 1,
O=C(Nc1ccc(F)cc1)c1cc2sc(N3CCC(COc4ccc(Cl)cc4)CC3)nc2s1 [Compound 245],1 to 20,< 1,
CN(C)C(=O)CC1CCN(c2nc3sc(C(=O)Nc4ccc(F)cc4)cc3s2)C1 (stereo not shown) [Compound 332],< 1,< 1,
Cc1ccc(-c2ccc(NC(=O)c3cc4sc(NCCN5CCOCC5)nc4s3)cc2)nc1 [Compound 260],1 to 20,< 1,
CN(C)C(=O)CC1CCN(c2nc3sc(C(=O)Nc4ccc(-c5ccc(F)nc5)cc4)cc3s2)C1 (stereo not shown) [Compound 350],< 1,< 1,
O=C(Nc1ccc(F)cn1)c1cc2sc(N3CCOCC3)nc2s1 [Compound 105],1 to 20,< 1,
CN(CCO)c1nc2sc(C(=O)Nc3ccc4oc(CCc5ccc(F)cc5)nc4c3)cc2s1 [Compound 252],1 to 20,< 1,
O=C(Nc1ccc(-c2ccc(F)nc2)cc1)c1cc2sc(N3CCN4CCCC4C3)nc2s1 (stereo not shown) [Compound 338],< 1,< 1,
Cc1nc2cc(NC(=O)c3cc4sc(NCCN5CCOCC5)nc4s3)ccc2o1 [Compound 224],1 to 20,< 1,
Cc1nc2cc(NC(=O)c3cc4sc(NCCOc5ccc(Cl)cc5)nc4s3)ccc2o1 [Compound 290],> 20,< 1,

SMILES,MIC50 [1] [µM],MIC50 [2] [µM],"QIM (MIC50, uM) [2]"
CN(CC(O)C(F)(F)F)c1nc2sc(C(=O)Nc3ccc(F)cc3)cc2s1 (stereo not shown) [Compound 316],1 to 20,< 1,
Cc1nc2cc(NC(=O)c3cc4sc(N5CCC(C(=O)c6ccc(Cl)cc6)CC5)nc4s3)ccc2o1 [Compound 205],> 20,> 20,
Cc1ccc(-c2ccc(NC(=O)c3cc4sc(N5CCC(C(=O)N(C)C)CC5)nc4s3)cc2)cn1 [Compound 204],< 1,< 1,
CN(C)C(=O)C1CCN(c2nc3sc(C(=O)Nc4ccc(-c5ccn(C)n5)cc4)cc3s2)CC1 [Compound 203],< 1,< 1,
O=C(Nc1ccc(F)cc1)c1cc2sc(NCCN3CCOCC3)nc2s1 [Compound 302],1 to 20,< 1,
COc1ccc(NC(=O)c2cc3sc(N4CCC(O)C4)nc3s2)cc1 (stereo not shown) [Compound 130],1 to 20,< 1,
CN(C)C(=O)C1CCN(c2nc3sc(C(=O)Nc4ccc(CN5CCOCC5)cc4)cc3s2)CC1 [Compound 353],1 to 20,,
Cc1nc2cc(CNC(=O)c3cc4sc(N5CCOCC5)nc4s3)ccc2o1 [Compound 229],> 20,1 to 20,
O=C(O)c1ccc(NC(=O)c2cc3nc(N4CCCCC4)sc3s2)cc1 [Compound 19],1 to 20,> 20,
Cc1nc2cc(NC(=O)c3sc4nc(N5CCOCC5)sc4c3N)ccc2o1 [Compound 230],> 20,> 20,
Cc1nc2cc(NC(=O)c3cc4sc(N5CCN6CCCC6C5)nc4s3)ccc2o1 (stereo not shown) [Compound 323],< 1,< 1,
COc1ccc(NC(=O)c2cc3nc(N4CCCCC4)sc3s2)cc1 [Compound 2],> 20,> 20,
CN(CC(O)C(F)(F)F)c1nc2sc(C(=O)Nc3ccc(-c4ccc(F)cn4)cc3)cc2s1 (stereo not shown) [Compound 317],1 to 20,< 1,
Cn1ccc(-c2ccc(NC(=O)c3cc4sc(NCCN5CCOCC5)nc4s3)cc2)n1 [Compound 319],1 to 20,< 1,
O=C(Nc1ccc(F)cn1)c1cc2sc(NCCN3CCOCC3)nc2s1 [Compound 335],1 to 20,1 to 20,
COCCN(c1nc2sc(C(=O)Nc3ccc4oc(C)nc4c3)cc2s1)C(C)C [Compound 242],1 to 20,< 1,
CN(C)C(=O)C1CCN(c2nc3sc(C(=O)Nc4ccc(-c5ccc(F)cc5)nc4)cc3s2)CC1.Cl [Compound 259],,,+++ (+++ indicates <1 uM)
Cc1nc2cc(NC(=O)c3cc4sc(NCCO)nc4s3)ccc2o1 [Compound 267],1 to 20,1 to 20,
C#CCOc1ccc(-c2ccc(NC(=O)c3cc4sc(NCCN5CCOCC5)nc4s3)cc2)cc1 [Compound 359],1 to 20,< 1,
CC1CCN(c2ccc(NC(=O)c3cc4sc(NCCOc5ccc(Cl)cc5)nc4s3)cc2)CC1 [Compound 347],> 20,> 20,
COCCCN(C)c1nc2sc(C(=O)Nc3ccc4oc(C)nc4c3)cc2s1 [Compound 254],,< 1,
O=C(Nc1ccc(F)cc1)c1cc2sc(NC3CCNCC3)nc2s1 [Compound 312],> 20,> 20,
CC(C)(C)CC(=O)NC1CCN(c2nc3sc(C(=O)Nc4ccc(F)cc4)cc3s2)CC1 [Compound 304],> 20,< 1,
O=C(Nc1ccc(-c2ccc(F)cn2)cc1)c1cc2sc(N3CCNCC3)nc2s1 [Compound 315],1 to 20,< 1,

SMILES,MIC50 [1] [µM],MIC50 [2] [µM],"QIM (MIC50, uM) [2]"
COc1ccc(NC(=O)c2cc3sc(N4CCC(C(=O)O)CC4)nc3s2)cc1 [Compound 149],1 to 20,1 to 20,
Cc1nc2cc(NC(=O)c3cc4sc(NC5CCN(Cc6ccc(F)cc6)CC5)nc4s3)ccc2o1 [Compound 357],1 to 20,,
O=C(Nc1ccc(F)cc1)c1cc2sc(NC3CCCN(c4ccc(F)cc4)C3)nc2s1 (stereo not shown) [Compound 318],> 20,< 1,
CN(CCO)c1nc2sc(C(=O)Nc3ccc(-c4n[nH]cc4Cl)cc3)cc2s1 [Compound 281],,1 to 20,
CN(C)C(=O)C1CCN(c2nc3sc(C(=O)Nc4ccc(-c5n[nH]cc5Cl)cc4)cc3s2)CC1 [Compound 280],,> 20,
COc1ccc(NC(=O)c2cc3sc(N4CCCCC4)nc3s2)cc1OC [Compound 285],,< 1,
Cc1nc2cc(NC(=O)c3cc4sc(N(C)CCN(C)C)nc4s3)ccc2o1 [Compound 253],,1 to 20,
COc1ccc(NC(=O)c2cc3sc(N4CCCCC4)nc3s2)c(OC)c1OC [Compound 300],,> 20,
CN1CCCC(Nc2nc3sc(C(=O)Nc4ccc(-c5ccc(F)nc5)cc4)cc3s2)C1 (stereo not shown) [Compound 354],1 to 20,,
O=C(Nc1ccc(-c2ccc(F)cn2)cc1)c1cc2sc(NCCN3CCOCC3)nc2s1 [Compound 293],,< 1,
CN(C)C(=O)C1CCN(CCNc2nc3sc(C(=O)Nc4ccc(-c5ccc(F)cn5)cc4)cc3s2)CC1 [Compound 355],1 to 20,,
COc1ccc(NC(=O)c2cc3sc(N4CCCCC4)nc3s2)c(OC)c1 [Compound 286],,> 20,
CN(C)C(=O)C1CCN(c2nc3sc(C(=O)Nc4ccc(-c5ccc(F)cc5)cn4)cc3s2)CC1.CS(=O)(=O)O [Compound 283],,,+++ (+++ indicates <1 uM)
Cc1nc2cc(NC(=O)c3cc4sc(NC5CCN(C)CC5)nc4s3)ccc2o1 [Compound 356],> 20,,
Cc1nc2cc(NC(=O)c3cc4sc(N(C)CCOc5ccccc5)nc4s3)ccc2o1 [Compound 256],,< 1,
CN(C)C(=O)C1CCN(c2nc3sc(C(=O)Nc4ccc(-c5ccc(F)cn5)cc4)cc3s2)CC1 [Compound 268],,< 1,
Cc1nc2cc(NC(=O)c3cc4sc(N(C)CCC(=O)N(C)C)nc4s3)ccc2o1 [Compound 264],,1 to 20,
CN(C)C(=O)C1CCN(c2nc3sc(C(=O)Nc4ccc(N5CCOCC5)cc4)cc3s2)CC1 [Compound 352],< 1,,
CN(CCO)c1nc2sc(C(=O)Nc3ccc(-c4nn(C)cc4Cl)cc3)cc2s1 [Compound 279],,1 to 20,
N#Cc1ccc(NC(=O)c2cc3sc(NCCN4CCOCC4)nc3s2)cc1 [Compound 303],,> 20,
Cc1nc2cc(NC(=O)c3cc4sc(N(C)CCOC(C)C)nc4s3)ccc2o1 [Compound 255],,> 20,
Cc1nc2cc(NC(=O)c3cc4sc(N(C)CCN5CCC5)nc4s3)ccc2o1 [Compound 257],,> 20,
